Assay results reported in patent US20060047114A1, “Azabicyclic amine histamine-3 receptor antagonists” (Pfizer Inc, priority 2004, published 2006).

Biological target: T1, rat histamine H3 receptors (Rattus norvegicus, UniProt Q9QYN8)
T1 construct: Frozen rat frontal brain or frozen human post-mortem frontal brain is homogenized; from tissue; host or cells: rat frontal brain membranes
Test: Rat H3 binding (3H-N-methylhistamine displacement, frontal brain membranes)
Conditions: radioligand 1 nM 3H-N-methylhistamine, 1-hour incubation, read-out: Rat H3 activity (Kj)
Method: The in vitro affinity of the compounds in the present invention at the rat or human histamine H3 receptors can be determined according to the following procedure. Frozen rat frontal brain or frozen human post-mortem frontal brain is homogenized in 20 volumes of cold 50 mM Tris HCl containing 2 mM MgCl2 (pH to 7.4 at 4° C.). The homogenate is then centrifuged at 45,000 G for 10 minutes. The supernatant is decanted and the membrane pellet re-suspended by Polytron in cold 50 mM Tris HCl containing 2 mM MgCl2 (pH to 7.4 at 4 degrees C.) and centrifuged again. The final pellet is re-suspended in 50 mM Tris HCl containing 2 mM MgCl2 (pH to 7.4 at 25 degrees C.) at a concentration of 12 mg/mL. Dilutions of compounds are made in 10% DMSO/50 mM Tris buffer (pH 7.4) (at 10× final concentration, so that the final DMSO concentration is 1%). Incubations are initiated by the addition of membranes (200 microliters) to 96 well V-bottom polypropylene plates containing 25 microliters of drug dilutions and 25 microliters of radioligand (1 nM final concentration ^3H-N-methylhistamine). After a 1-hour incubation, assay samples are rapidly filtered through Whatman GF/B filters and rinsed with ice-cold 50 mM Tris buffer (pH 7.4) using a Skatron cell harvester. Radioactivity is quantified using a BetaPlate scintillation counter.

T1 sequence (Q9QYN8 whole entry): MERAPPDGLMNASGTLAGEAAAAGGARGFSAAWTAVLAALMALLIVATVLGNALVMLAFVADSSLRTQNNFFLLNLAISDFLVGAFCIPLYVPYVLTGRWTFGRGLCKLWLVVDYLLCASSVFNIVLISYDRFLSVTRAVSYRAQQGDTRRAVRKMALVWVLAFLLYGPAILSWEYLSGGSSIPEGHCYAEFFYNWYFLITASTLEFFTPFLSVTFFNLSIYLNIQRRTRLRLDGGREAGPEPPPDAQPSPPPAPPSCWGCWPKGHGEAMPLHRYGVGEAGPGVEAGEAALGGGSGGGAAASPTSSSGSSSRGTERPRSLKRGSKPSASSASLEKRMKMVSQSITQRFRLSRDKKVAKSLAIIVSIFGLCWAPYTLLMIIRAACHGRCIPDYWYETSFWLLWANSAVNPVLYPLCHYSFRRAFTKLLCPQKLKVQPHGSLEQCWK

Structure (SMILES) | Ki [nM]
c1ccc(Oc2ccc(CN3C[C@@H]4[C@@H](COCCCN5CCCCC5)[C@@H]4C3)cc2)cc1 [Example 30, (1S,5R,6R)-3-(4-phenoxybenzyl)-6-(3-piperidin-1-ylpropoxymethyl)-3-azabicyclo[3.1.0]hexane] | 51
CC(=O)c1ccc(CN2C[C@@H]3[C@@H](COCCCN4CCCCC4)[C@@H]3C2)cc1 [Example 2, (1S,5R,6R)-1-{4-[6-(3-Piperidin-1-ylpropoxymethyl)-3-azabicyclo[3.1.0]hex-3-ylmethyl]-phenyl}-ethanone] | 116
Fc1ccc(Oc2ccc(CN3C[C@@H]4[C@@H](COCCCN5CCCCC5)[C@@H]4C3)cc2)cc1 [Example 47, (1R,5S,6R)-3-[4-(4-fluorophenoxy)-benzyl]-6-(3-piperidin-1-ylpropoxymethyl)-3-azabicyclo[3.1.0]hexane] | 43
c1cncc(-c2ccc(CN3C[C@@H]4[C@@H](COCCCN5CCCCC5)[C@@H]4C3)cc2)c1 [Example 67, (1R,5S,6R)-6-(3-piperidin-1-ylpropoxymethyl)-3-(4-pyridin-3-ylbenzyl)-3-azabicyclo[3.1.0]hexane] | 63
c1ccc(CCN2C[C@@H]3[C@@H](COCCCN4CCCCC4)[C@@H]3C2)cc1 [Example 3, (1S,5R,6R)-3-Phenethyl-6-(3-piperidin-1-ylpropoxymethyl)-3-azabicyclo[3.1.0]-hexane] | 78
c1ccc(CN2C[C@@H]3[C@@H](COCCCN4CCCCC4)[C@@H]3C2)cc1 [Int. 3, (1S,5R,6R)-3-Benzyl-6-(3-piperidin-1-ylpropoxymethyl)-3-azabicyclo[3.1.0]hexane] | 86
c1ccc(COc2cccc(CN3C[C@@H]4[C@@H](COCCCN5CCCCC5)[C@@H]4C3)c2)cc1 [Example 15, (1S,5R,6R)-3-(3-benzyloxybenzyl)-6-(3-piperidin-1-ylpropoxymethyl)-3-azabicyclo[3.1.0]hexane] | 41
CC(C)COc1ccc(CN2C[C@@H]3[C@@H](COCCCN4CCCCC4)[C@@H]3C2)cc1 [Example 70, (1R,5S,6R)-3-(4-isobutoxybenzyl)-6-(3-piperidin-1-ylpropoxymethyl)-3-azabicyclo[3.1.0]hexane] | 69
c1ccc(-c2ccc(CN3C[C@@H]4[C@@H](COCCCN5CCCCC5)[C@@H]4C3)cc2)cc1 [Example 17, (1S,5R,6R)-3-biphenyl-4-ylmethyl-6-(3-piperidin-1-ylpropoxymethyl)-3-azabicyclo[3.1.0]hexane] | 32
c1ccc(Oc2cccc(CN3C[C@@H]4[C@@H](COCCCN5CCCCC5)[C@@H]4C3)c2)cc1 [Example 14, (1S,5R,6R)-3-(3-phenoxybenzyl)-6-(3-piperidin-1-ylpropoxymethyl)-3-azabicyclo[3.1.0]hexane] | 51
CC(=O)Nc1ccc(CN2C[C@@H]3[C@@H](COCCCN4CCCCC4)[C@@H]3C2)cc1 [Example 49, N-{4-[(1R,5S,6R)-6-(3-piperidin-1-ylpropoxymethyl)-3-azabicyclo[3.1.0]hex-3-ylmethyl]-phenyl}-acetamide] | 45
COc1ccc(-c2ccc(CN3C[C@@H]4[C@@H](COCCCN5CCCCC5)[C@@H]4C3)cc2)cc1 [Example 57, (1R,5S,6R)-3-(4′-methoxybiphenyl-4-ylmethyl)-6-(3-piperidin-1-ylpropoxymethyl)-3-azabicyclo[3.1.0]hexane] | 30
O=C1NCCN1c1ccc(CN2C[C@@H]3[C@@H](COCCCN4CCCCC4)[C@@H]3C2)cc1 [Example 51, 1-{4-[(1R,5S,6R)-6-(3-piperidin-1-ylpropoxymethyl)-3-azabicyclo[3.1.0]hex-3-ylmethyl]-phenyl}-imidazolidin-2-one] | 58
FC(F)C(F)(F)Oc1ccc(CN2C[C@@H]3[C@@H](COCCCN4CCCCC4)[C@@H]3C2)cc1 [Example 69, (1R,5S,6R)-6-(3-piperidin-1-ylpropoxymethyl)-3-[4-(1,1,2,2-tetrafluoroethoxy)-benzyl]-3-azabicyclo[3.1.0]hexane] | 53
